US20260199289A1, “USE OF GLYCOGEN METABOLISM INHIBITORS FOR THE TREATMENT OF CANCER” (THE UNIVERSITY OF VERMONT AND STATE AGRICULTURAL COLLEGE, priority 2022, published 2026)
Entries after “also recorded” stand apart in the source; their conditions may differ.

Legend:
[1] = tested on: Pancreatic adenocarcinoma cells; conditions: cited from earlier work
8505C cells [2] = assay: SRB cell viability assay in ATC cells; format: cell-based, human; conditions: for cell viability of CP-treated cells with the exogenous agent: 8505C cells treated with CP-91,149
Description: In Vitro Cell Staining for Measuring Drug Efficacy—Thyroid cells (4.0×10^3) were seeded in 96 well plates with 100 μl CTM and allowed to adhere overnight. 100 μl of CTM containing 2× concentration of compound was overlayed in each well for 48 hours unless otherwise indicated. Each well then received 100 μl of 10% w/v cold trichloroacetic acid (Fisher) and incubated at 4° C. for 1 hour to fix the cells. Each well was rinsed 3× with DI H2O and stained with 100 μl 0.057% w/v sulforhodamine B (SRB, Sigma-Aldrich) for 30 minutes at room temperature in the dark. Wells were washed 4× with 300 μl 1% v/v acetic acid (Fisher), and remaining SRB stain was solubilized with 200 μl of 10 mM Tris buffer, pH 10.5 (Fisher). Absorbance was measured at 564 nm with a Synergy 2 Multi-Detection Microplate Reader (Agilent Technologies) and normalized to a vehicle control. Drug synergy was evaluated using the coefficient of drug interaction (CDI) formula: CDI=AB/(A×B)×100, where AB is the percent remaining cells of an indicated combination treatment, A is the average percent remaining cells of agent 1 alone, and B is the average percent remaining cells of agent 2 alone. […] Hao et al., “Effect of Lumiracoxib on Proliferation and Apoptosis of Human Nonsmall Cell Lung Cancer Cells In vitro,” Chin Med J (Engl) 121:602-607 (2008), which is hereby incorporated by reference in its entirety. […]

8505C cells [3] = assay: Reactive oxygen species quantification (H2DCFDA); format: cell-based, human; conditions: for ROS in CP-treated cells with the exogenous agent: 8505C cells treated with CP-91,149
Description: Quantification of Reactive Oxygen Species—Thyroid cells (1.0-2.0×10^4) were seeded in a black 96 well plate in 200 μl CTM and allowed to adhere overnight. Wells were washed with PBS and incubated with or without 25 μM H2DCFDA for 45 minutes at 37° C. in a non-CO2 incubator with compounds of interest diluted in phenol-red free RPMI (supplemented with 2 mM glutamine and 10% charcoal-stripped serum). Wells were washed with PBS and received compounds of interest diluted in phenol-red free, supplemented RPMI and incubated at 37° C. in a SpectraMax M4 Microplate Reader (Molecular Devices) to record fluorescent measurements (Ex/Em=485/535 nm) every 15 minutes overnight. Maximum fluorescence intensity was determined (~6 hours), background signal (—H2DCFDA) was subtracted from each group, and corrected values were normalized to the vehicle control.

8505C cells [4] = assay: Drug synergy by coefficient of drug interaction (SRB assay); format: cell-based, human; conditions: for drug interaction with 6-AN (coefficient of drug interaction class): combination with 6-AN (PPP inhibition)
Description: In Vitro Cell Staining for Measuring Drug Efficacy—Thyroid cells (4.0×10^3) were seeded in 96 well plates with 100 μl CTM and allowed to adhere overnight. 100 μl of CTM containing 2× concentration of compound was overlayed in each well for 48 hours unless otherwise indicated. Each well then received 100 μl of 10% w/v cold trichloroacetic acid (Fisher) and incubated at 4° C. for 1 hour to fix the cells. Each well was rinsed 3× with DI H2O and stained with 100 μl 0.057% w/v sulforhodamine B (SRB, Sigma-Aldrich) for 30 minutes at room temperature in the dark. Wells were washed 4× with 300 μl 1% v/v acetic acid (Fisher), and remaining SRB stain was solubilized with 200 μl of 10 mM Tris buffer, pH 10.5 (Fisher). Absorbance was measured at 564 nm with a Synergy 2 Multi-Detection Microplate Reader (Agilent Technologies) and normalized to a vehicle control. Drug synergy was evaluated using the coefficient of drug interaction (CDI) formula: CDI=AB/(A×B)×100, where AB is the percent remaining cells of an indicated combination treatment, A is the average percent remaining cells of agent 1 alone, and B is the average percent remaining cells of agent 2 alone. […] Hao et al., “Effect of Lumiracoxib on Proliferation and Apoptosis of Human Nonsmall Cell Lung Cancer Cells In vitro,” Chin Med J (Engl) 121:602-607 (2008), which is hereby incorporated by reference in its entirety.

ATC xenograft = conditions: cited from earlier work
8505C cells [5] = assay: Metabolic flux analysis (Seahorse ECAR and OCR); format: cell-based, human; conditions: 8505C cells
Description: Metabolic Flux Analysis—Thyroid cells (5.0×10^4) were plated in a 96 well Seahorse culture plate with compounds of interest diluted in 200 μl CTM for 24 hours. Cells were washed with PBS and equilibrated for 1 hour at 37° C. in a non-CO2 incubator with compounds of interest diluted in Seahorse RPMI (supplemented with 11.1 mM glucose, 2 mM glutamine, and 5% serum) before analysis of OCR and ECAR in a Metabolic Flux Analyzer (Seahorse Bioscience, North Billerica, MA 96XP).

8505C tumors = assay: 8505C xenograft tumor growth in nude mice; format: in vivo, mouse; conditions: intraperitoneal, 50 mg/kg CP-91,149, 10 mg/kg sorafenib, 6-7 days a week
Description: Ethics statement and animal modeling—All animal procedures were approved by Institutional Animal Care and Use Committee (IACUC) at the University of Vermont. All animals were maintained in pathogen-free conditions and cared for in accordance with IACUC policies and certification. All surgeries were performed with isoflurane anesthesia. Temperature-controlled post-surgical monitoring was implemented to minimize suffering. Mice carrying anaplastic thyroid tumors were euthanized at designated time points for tumor collection. Signs of ulceration or a maximum individual tumor size of 2000 mm^3 were used as a protocol-enforced endpoint.
Mice were given food and water ad libitum. […] These doses were based on previous reports.

HepG2 cells = conditions: HepG2 cells; cited from earlier work
ATC = conditions: in vitro; cited from earlier work
[6] = ATC cell viability, combination with CP-91,149

For `O=C(N[C@@H](Cc1ccc(F)cc1)C(=O)N1CCC(O)CC1)c1cc2cc(Cl)ccc2[nH]1` [CP-320626, 5-chloro-N-[(2S)-3-(4-fluorophenyl)-1-(4-hydroxypiperidin-1-yl)-1-oxopropan-2-yl]-1H-indole-2-carboxamide], the cellular metabolism [1] is listed as “inhibited cellular respiration, the PPP, anaplerosis, and synthesis of ribose and fatty acids” and the sensitivity of cells [1] is listed as “sensitive”.

With `NC(=O)C1=CN([C@@H]2O[C@H](COP(=O)(O)OP(=O)(O)OC[C@H]3O[C@@H](n4cnc5c(N)ncnc54)[C@H](OP(=O)(O)O)[C@@H]3O)[C@@H](O)[C@H]2O)C=CC1` [NADPH] the “cell viability of 2-DG-treated cells with the exogenous agent” value (8505C cells [2]; 8505C cells treated with 2-DG, 48 hours, replete media) was “only rescued cell viability in the CP-treated cells”, the “cell viability of CP-treated cells with the exogenous agent” value (from here on “cell viability of CP-treated cells”) (8505C cells [2]) was “partially rescued; also recorded: only rescued cell viability in the CP-treated cells; also recorded: can rescue ATC cells from CP-mediated loss in cell viability” and the “ROS in 2-DG-treated cells with the exogenous agent” value (8505C cells [3]; 8505C cells treated with 2-DG, replete media) was “reduced ROS in both treatment groups”. The “ROS in CP-treated cells with the exogenous agent” value (“ROS in CP-treated cells” for short) (8505C cells [3]) was “ablated; also recorded: reduced ROS in both treatment groups; also recorded: attenuated”.

In the case of `CC(=O)N[C@@H](CS)C(=O)O` [N-acetylcysteine], the “cell viability of CP-treated cells” value (8505C cells [2]; listed as N-acetyl cysteine) is reported as “can rescue ATC cells from CP-mediated loss in cell viability”, the “cell viability of CP-treated cells” value (8505C cells [2]; listed as NAC) is reported as “partially rescued” and the “ROS in CP-treated cells” value (8505C cells [3]) is reported as “ablated”. For the same compound, the “ROS in CP-treated cells” value (8505C cells [3]; listed as N-acetyl cysteine) was “attenuated”.

For `Nc1cc(C(F)(F)F)c(-c2cc(N3CCOCC3)nc(N3CCOCC3)n2)cn1` [buparlisib, 5-(2,6-dimorpholin-4-ylpyrimidin-4-yl)-4-(trifluoromethyl)pyridin-2-amine], the “drug interaction with CP-91,149 (coefficient of drug interaction class)” value (8505C cells [4]; [6]) was “drug additivity rather than synergy”.

For `CC(=O)c1c(C)c2cnc(Nc3ccc(N4CCNCC4)cn3)nc2n(C2CCCC2)c1=O` [palbociclib, 6-acetyl-8-cyclopentyl-5-methyl-2-[(5-piperazin-1-ylpyridin-2-yl)amino]pyrido[6,5-d]pyrimidin-7-one], the “drug interaction with CP-91,149 (coefficient of drug interaction class)” value (8505C cells [4]; [6]) was “did not achieve synergy”.

For `COc1cc2nccc(Oc3ccc(NC(=O)NC4CC4)c(Cl)c3)c2cc1C(N)=O` [lenvatinib, 4-[3-chloro-4-(cyclopropylcarbamoylamino)phenoxy]-7-methoxyquinoline-6-carboxamide], the “drug interaction with CP-91,149 (coefficient of drug interaction class)” value (8505C cells [4]; [6]) was “drug additivity rather than synergy”.

With `COc1cccc2c1C(=O)c1c(O)c3c(c(O)c1C2=O)C[C@@](O)(C(=O)CO)C[C@@H]3O[C@H]1C[C@H](N)[C@H](O)[C@H](C)O1` [doxorubicin] the “drug interaction with CP-91,149 (coefficient of drug interaction class)” value (8505C cells [4]; [6]) was “did not achieve synergy”.

In the case of `O=CC[C@@H](O)[C@H](O)[C@H](O)CO` [2-DG, 2-deoxyglucose], the lactate production (ATC xenograft) is listed as “reduced lactate production”, the tumor size (ATC xenograft) is listed as “failed to significantly reduce tumor size” and the “extracellular acidification rate (ECAR)” value (8505C cells [5]) is listed as “significantly inhibited”. For the same compound, the “cell viability with excess (2 mM) pyruvate” value (8505C cells [2]; 8505C cells, 48 hours) was “could be rescued”, the “cell viability with excess (25 mM) glucose” value (8505C cells [2]; 8505C cells, 48 hours) was “rescued cell viability” and the “cell viability with pyruvate depletion” value (8505C cells [2]; 8505C cells, 48 hours) was “only significantly impacted the 2-DG-treated cells”. The “reactive oxygen species (ROS) levels” value (8505C cells [3]; 8505C ATC cells) was “only modestly increased ROS levels”, the “ROS levels with excess glucose” value (8505C cells [3]; 8505C cells) was “only in CP-treated cells” and the “drug interaction with 6-AN (coefficient of drug interaction class)” value (8505C cells [4]; 8505C cells, 48 hours) was “drug antagonism”. For the same compound, the “CDI values in combination with CP-91,149” value (8505C cells [4]; [6]) was about 1.0 and the “drug interaction with CP-91,149 (coefficient of drug interaction class)” value (8505C cells [4]; [6]) was “drug additivity”.

With `NC(=O)c1ccc(N)nc1` [6-AN, 6-aminonicotinamide] the “drug interaction with CP-91,149 (coefficient of drug interaction class)” value (8505C cells [4]; [6]) was “remarkable drug synergy”.

In the case of `CNC(=O)c1cc(Oc2ccc(NC(=O)Nc3ccc(Cl)c(C(F)(F)F)c3)cc2)ccn1` [sorafenib, 4-[4-[[4-chloro-3-(trifluoromethyl)phenyl]carbamoylamino]phenoxy]-N-methylpyridine-2-carboxamide], the “drug interaction with 6-AN (coefficient of drug interaction class)” value (8505C cells [4]; 8505C cells, 48 hours) is reported as “drug synergy; also recorded: synergistic”, the “drug interaction with inhibition of glycolysis” value (8505C cells [4]; 8505C cells, 48 hours) is reported as “not glycolysis” and the “drug interaction with CP-91,149 (coefficient of drug interaction class)” value (8505C cells [4]; [6]) is reported as “high degree of drug synergy; also recorded: profound drug synergy”. The tumor growth (8505C tumors) was “notably stunted” and the “synergy with CP-91,149” value (HepG2 cells) was “displayed synergy”.

In the case of `CN(C)C(=N)N=C(N)N` [metformin], the ATC proliferation (ATC) is given as “limit ATC proliferation in vitro”.

For `O=C(O)C(=O)CBr` [3-BP, 3-bromopyruvic acid], the “drug interaction with CP-91,149 (coefficient of drug interaction class)” value (8505C cells [4]; [6]) was “failed to achieve synergy”.
